Assay results: ChEMBL document CHEMBL3797190, “Development of 3,5-Dinitrobenzylsulfanyl-1,3,4-oxadiazoles and Thiadiazoles as Selective Antitubercular Agents Active Against Replicating and Nonreplicating Mycobacterium tuberculosis” (J Med Chem, 2016)
Converted amounts (≈) assume the structure as drawn.

How the values were obtained:
Assay type in all cases: functional
[1] = system: Mycobacterium tuberculosis; assay: Antimycobacterial activity against Mycobacterium tuberculosis CNCTC My 331/88 after 14 days by microdilution method; settings: CNCTC My 331/88, 336 h
Mycobacterium avium [2] = assay: Antimycobacterial activity against Mycobacterium avium CNCTC My 330/88 after 14 days by microdilution method; settings: CNCTC My 330/88, 336 h
Mycobacterium kansasii [3] = assay: Antimycobacterial activity against Mycobacterium kansasii CNCTC My 235/80 after 14 days by microdilution method; settings: CNCTC My 235/80, 336 h
Mycobacterium kansasii [4] = assay: Antimycobacterial activity against Mycobacterium kansasii CNCTC My 6509/96 after 14 days by microdilution method; settings: CNCTC My 6509/96, 336 h
[5] = system: Mycobacterium tuberculosis; assay: Antimycobacterial activity against Mycobacterium tuberculosis CNCTC My 331/88 after 21 days by microdilution method; settings: CNCTC My 331/88, 504 h
Mycobacterium avium [6] = assay: Antimycobacterial activity against Mycobacterium avium CNCTC My 330/88 after 21 days by microdilution method; settings: CNCTC My 330/88, 504 h
Mycobacterium kansasii [7] = assay: Antimycobacterial activity against Mycobacterium kansasii CNCTC My 235/80 after 21 days by microdilution method; settings: CNCTC My 235/80, 504 h
Mycobacterium kansasii [8] = assay: Antimycobacterial activity against Mycobacterium kansasii CNCTC My 6509/96 after 21 days by microdilution method; settings: CNCTC My 6509/96, 504 h
Mycobacterium kansasii [9] = assay: Antimycobacterial activity against Mycobacterium kansasii CNCTC My 235/80 after 7 days by microdilution method; settings: CNCTC My 235/80, 168 h
Mycobacterium kansasii [10] = assay: Antimycobacterial activity against Mycobacterium kansasii CNCTC My 6509/96 after 7 days by microdilution method; settings: CNCTC My 6509/96, 168 h

Compound	MIC99 [1] [µM]	MIC99 (Mycobacterium avium [2]) [µM]	MIC99 (Mycobacterium kansasii [3]) [µM]	MIC99 (Mycobacterium kansasii [4]) [µM]	MIC99 [5] [µM]	MIC99 (Mycobacterium avium [6]) [µM]	MIC99 (Mycobacterium kansasii [7]) [µM]	MIC99 (Mycobacterium kansasii [8]) [µM]	MIC99 (Mycobacterium kansasii [9]) [µM]	MIC99 (Mycobacterium kansasii [10]) [µM]
O=[N+]([O-])c1ccc(CSc2nnc(-c3ccccc3)s2)c([N+](=O)[O-])c1	8 (≈ 3 µg/mL)	8 (≈ 3 µg/mL)	4 (≈ 1.5 µg/mL)	2 (≈ 0.749 µg/mL)	16 (≈ 5.99 µg/mL)	32 (≈ 12 µg/mL)	4 (≈ 1.5 µg/mL)	4 (≈ 1.5 µg/mL)	1 (≈ 0.374 µg/mL)	1 (≈ 0.374 µg/mL)
O=[N+]([O-])c1cc(CSc2nnc(-c3ccncc3)o2)cc([N+](=O)[O-])c1	0.5 (≈ 0.18 µg/mL)	62 (≈ 22.3 µg/mL)	2 (≈ 0.719 µg/mL)	2 (≈ 0.719 µg/mL)	0.5 (≈ 0.18 µg/mL)	62 (≈ 22.3 µg/mL)	2 (≈ 0.719 µg/mL)	4 (≈ 1.44 µg/mL)	1 (≈ 0.359 µg/mL)	2 (≈ 0.719 µg/mL)
O=[N+]([O-])c1ccc(CSc2nnc(-c3ccc([N+](=O)[O-])cc3)o2)cc1	250 (≈ 89.6 µg/mL)	250 (≈ 89.6 µg/mL)	250 (≈ 89.6 µg/mL)	62 (≈ 22.2 µg/mL)	250 (≈ 89.6 µg/mL)	250 (≈ 89.6 µg/mL)	250 (≈ 89.6 µg/mL)	62 (≈ 22.2 µg/mL)	250 (≈ 89.6 µg/mL)	62 (≈ 22.2 µg/mL)
Nc1cc(N)cc(CSc2nnc(-c3ccc([N+](=O)[O-])cc3)s2)c1	250 (≈ 89.9 µg/mL)	250 (≈ 89.9 µg/mL)	250 (≈ 89.9 µg/mL)	250 (≈ 89.9 µg/mL)	250 (≈ 89.9 µg/mL)	250 (≈ 89.9 µg/mL)	250 (≈ 89.9 µg/mL)	250 (≈ 89.9 µg/mL)	250 (≈ 89.9 µg/mL)	250 (≈ 89.9 µg/mL)
O=[N+]([O-])c1cc(CSc2nnc(-c3ccccc3Cl)o2)cc([N+](=O)[O-])c1	0.125 (≈ 0.0491 µg/mL)	16 (≈ 6.28 µg/mL)	0.25 (≈ 0.0982 µg/mL)	0.5 (≈ 0.196 µg/mL)	0.125 (≈ 0.0491 µg/mL)	32 (≈ 12.6 µg/mL)	0.5 (≈ 0.196 µg/mL)	1 (≈ 0.393 µg/mL)	0.125 (≈ 0.0491 µg/mL)	0.125 (≈ 0.0491 µg/mL)
Cc1nnc(SCc2cc([N+](=O)[O-])cc([N+](=O)[O-])c2)o1	4 (≈ 1.19 µg/mL)	500 (≈ 148 µg/mL)	8 (≈ 2.37 µg/mL)	16 (≈ 4.74 µg/mL)	8 (≈ 2.37 µg/mL)	500 (≈ 148 µg/mL)	16 (≈ 4.74 µg/mL)	32 (≈ 9.48 µg/mL)	4 (≈ 1.19 µg/mL)	16 (≈ 4.74 µg/mL)
O=[N+]([O-])c1cc(CSc2nnc(-c3ccncc3)s2)cc([N+](=O)[O-])c1	0.125 (≈ 0.0469 µg/mL)	> 125	1 (≈ 0.375 µg/mL)	1 (≈ 0.375 µg/mL)	0.125 (≈ 0.0469 µg/mL)	> 125	1 (≈ 0.375 µg/mL)	1 (≈ 0.375 µg/mL)	0.5 (≈ 0.188 µg/mL)	0.5 (≈ 0.188 µg/mL)
Nc1cc(CSc2nnc(-c3ccc([N+](=O)[O-])cc3)s2)cc([N+](=O)[O-])c1	125 (≈ 48.7 µg/mL)	250 (≈ 97.4 µg/mL)	250 (≈ 97.4 µg/mL)	250 (≈ 97.4 µg/mL)	125 (≈ 48.7 µg/mL)	250 (≈ 97.4 µg/mL)	250 (≈ 97.4 µg/mL)	250 (≈ 97.4 µg/mL)	250 (≈ 97.4 µg/mL)	250 (≈ 97.4 µg/mL)
O=[N+]([O-])c1ccc(-c2nnc(SCc3cc([N+](=O)[O-])cc(C(F)(F)F)c3)s2)cc1	> 32	> 500	> 32	> 32	> 32	> 500	> 32	> 32	> 32	> 32
O=[N+]([O-])c1cc(CSc2nnc(-c3ccc(O)cc3)o2)cc([N+](=O)[O-])c1	1 (≈ 0.374 µg/mL)	62 (≈ 23.2 µg/mL)	8 (≈ 2.99 µg/mL)	8 (≈ 2.99 µg/mL)	1 (≈ 0.374 µg/mL)	62 (≈ 23.2 µg/mL)	16 (≈ 5.99 µg/mL)	16 (≈ 5.99 µg/mL)	4 (≈ 1.5 µg/mL)	4 (≈ 1.5 µg/mL)
O=[N+]([O-])c1ccc(-c2nnc(SCc3cc([N+](=O)[O-])cc(C(F)(F)F)c3)o2)cc1	32 (≈ 13.6 µg/mL)	> 500	32 (≈ 13.6 µg/mL)	32 (≈ 13.6 µg/mL)	32 (≈ 13.6 µg/mL)	> 500	32 (≈ 13.6 µg/mL)	32 (≈ 13.6 µg/mL)	16 (≈ 6.82 µg/mL)	16 (≈ 6.82 µg/mL)
